Data set [1] can be described thus: Inhibition of wild-type Mycobacterium tuberculosis thymidylate kinase expressed in Escherichia coli BLi5 competent cells using dTMP as substrate by lactate dehydrogenase, pyruvate kinase and nucleoside diphosphate kinase coupled spectrophotometric method.
Data set [2] is described as follows: Stability of compound in pH 6.6 ammonium bicarbonate-formic acid buffer assessed as degradation measured up to 6 hrs by LC-MS analysis. It is filed as physicochemical. The note with it: read-out: Drug degradation.
A short description of data set [3]: Stability of compound in pH 6.6 ammonium bicarbonate-formic acid buffer assessed as parent compound remaining measured after 24 hrs by LC-MS analysis. The note with it: read-out: Stabilty. The class given is physicochemical.
The subject of data set [4] is Mycobacterium tuberculosis. Description: Antitubercular activity against Mycobacterium tuberculosis H37Rv ATCC 27294 incubated for 7 to 14 days under 7H9/glucose medium. The class given is functional. The note with it: time 7-14 day.
The test system of data set [5] is Mycobacterium tuberculosis. As to the kind of experiment: Antitubercular activity against Mycobacterium tuberculosis H37Rv ATCC 27294 incubated for 7 to 14 days under GAST (Fe(+)) medium. The class given is functional. The note with it: time 7-14 day.
Data set [6] deals with Mycobacterium tuberculosis. As to the kind of experiment: Antitubercular activity against Mycobacterium tuberculosis H37Rv ATCC 27294 incubated for 7 to 14 days under GAST (Fe(-)) medium. The note with it: time 7-14 day. The class given is functional.
The nature of data set [7]: Cytotoxicity against human MRC5 cells measured after 24 hrs by neutral red uptake assay. It is filed as cell-based.
Data set [8] in a line: Stability of compound in pH 6.6 ammonium bicarbonate-formic acid buffer assessed as hydrolysis measured after 24 hrs by LC-MS analysis. The class given is physicochemical. The conditions noted are these: pH 6.6, 24 h.
Data set [9] concerns Mycobacterium tuberculosis. As to the kind of experiment: Antitubercular activity against Mycobacterium tuberculosis H37Ra incubated for 7 to 14 days under 7H9/glucose medium. It is filed as functional. The conditions noted are these: time 7-14 day.

In brackets after ≈: the same amount, converted by molar mass.

As usually defined, the IC50 is the concentration that gives 50% inhibition. As usually defined, the MIC99 is the lowest concentration that inhibits either 99% of growth or 99% of the strains tested, depending on the study. The CC50 is the concentration that lowers cell viability or growth by half. Higher therefore signals better tolerance by the cells.

In the case of `Cc1cn(C2CCN(Cc3cc(Oc4ccc(/C=N/NC(=S)S)c(O)c4)c4ccccc4n3)CC2)c(=O)[nH]c1=O`, the IC50 in [1] (read-out: IC50) is 0.31 µM. Also, the degraded at 6 h in data set [2] is less than 10%. Also, the remaining at 24 h in data set [3] is greater than 70%. Moreover, the results for the MIC99 in data set [4], in [5] and in data set [6] were greater than 100 µM, 100 µM (≈ 57.7 µg/mL) and 25 µM (≈ 14.4 µg/mL), respectively. The midpoint of cytotoxicity in [7], the CC50 at 24 h, lay at 1.45 µM.
Regarding `Cc1cn(C2CCN(Cc3cc(Oc4ccc(C(=O)NO)cc4)c4ccccc4n3)CC2)c(=O)[nH]c1=O`, the IC50 in data set [1] (read-out: IC50) was 1 µM. Moreover, the MIC99 is greater than 50 µM in data set [4] and 50 µM (≈ 25.1 µg/mL) in data set [5]. In [7], this molecule yielded a CC50 at 24 h of 32.2 µM.
Taken in the same sequence, the figures for `CCc1nc2ccc(Cl)cn2c1C(=O)NCc1ccc(N2CCC(n3cc(C)c(=O)[nH]c3=O)CC2)cc1` were 47 µM, 4.7 µM (≈ 2.45 µg/mL), 2.3 µM (≈ 1.2 µg/mL) and greater than 64 µM.
In the case of `Cc1cn(C2CCN(Cc3cc(NCCO)c4ccccc4n3)CC2)c(=O)[nH]c1=O`, in [1] (read-out: IC50), the half-maximal inhibitory concentration (IC50) came to 0.53 µM. In addition, the MIC99 in data set [4], in data set [5] and in [6] was greater than 100 µM each time. Besides, in data set [7], the CC50 at 24 h was greater than 64 µM.
Take `CCc1nc2ccc(Cl)cn2c1C(=O)N1CCC(n2cc(C)c(=O)[nH]c2=O)CC1`: the IC50 in data set [1] (read-out: IC50) was determined as 879 µM. The MIC99 in [4], in [5] and in data set [6] was greater than 100 µM in each case. The molecule also returned a CC50 at 24 h in [7] greater than 64 µM.
Consider `Cc1cn(C2CCN(c3ccc(CNC(=O)c4ccc([N+](=O)[O-])cc4[N+](=O)[O-])cc3)CC2)c(=O)[nH]c1=O`, for which the IC50 entry in data set [1] is recorded as “Nd(Unstable)”. The MIC99 in data set [4] is 9.4 µM (≈ 4.78 µg/mL); in data set [5] it was 0.78 µM (≈ 0.397 µg/mL); in [6], 1.2 µM (≈ 0.61 µg/mL). The CC50 at 24 h in data set [7] is greater than 64 µM.
Consider `Cc1cn(C2CCN(Cc3ccc(CNC(=O)c4cc([N+](=O)[O-])cc([N+](=O)[O-])c4)cc3)CC2)c(=O)[nH]c1=O`, for which the IC50 in data set [1] (read-out: IC50) came to 48 µM. In addition, the MIC99 in data set [4] came out at 9.4 µM (≈ 4.91 µg/mL); in [5], 9.4 µM (≈ 4.91 µg/mL); in data set [6], 6.25 µM (≈ 3.27 µg/mL). The same molecule gave a CC50 at 24 h in data set [7] greater than 64 µM.
Regarding `Cc1cn(C2CCN(Cc3cc(OCCOC(=O)c4ccc(O)c(O)c4)c4ccccc4n3)CC2)c(=O)[nH]c1=O`, in data set [1] (read-out: IC50), the IC50 stood at 0.14 µM. The MIC99 in data set [4] is no less than 100 µM; in data set [5], greater than 100 µM; in data set [6] it was greater than 100 µM. The CC50 at 24 h in [7] is 6.39 µM.
Take `Cc1cn(C2CCN(Cc3cccc(-c4ccccn4)n3)CC2)c(=O)[nH]c1=O`: the IC50 in [1] (read-out: IC50) was 34 µM. Moreover, the MIC99 in data set [4] is 12.5 µM (≈ 4.72 µg/mL); in data set [5], greater than 100 µM; in data set [6], greater than 100 µM. The molecule further displayed a CC50 at 24 h in data set [7] greater than 64 µM.
As to `Cc1cn(C2CCN(Cc3cc(Oc4ccc(OC(=O)c5ccc(O)c(O)c5)cc4)c4ccccc4n3)CC2)c(=O)[nH]c1=O`, the IC50 in data set [1] (read-out: IC50) was 0.18 µM. In data set [2], the degraded at 6 h was less than 10%. In addition, the remaining at 24 h in [3] is greater than 70%. Also, the Stabilty entry in data set [8] is listed as “Stable”. In addition, the MIC99 in data set [4] is greater than 50 µM; in [5] it was 37 µM (≈ 22 µg/mL).
`Cc1cn(C2CCN(Cc3cc(OCCO)c4ccccc4n3)CC2)c(=O)[nH]c1=O`: the IC50 in data set [1] (read-out: IC50) was 2.4 µM. In addition, the MIC99 in data set [4], in data set [5] and in data set [6] was greater than 100 µM in each case. In [7], this molecule gave a CC50 at 24 h greater than 64 µM.
For the molecule `Cc1cn(C2CCN(Cc3ccc4cccc(O)c4n3)CC2)c(=O)[nH]c1=O`, in data set [1] (read-out: IC50), the IC50 stood at 23 µM. Moreover, the MIC99 in data set [4] is 75 µM (≈ 27.5 µg/mL); in data set [5], greater than 100 µM; in data set [6], greater than 100 µM. In data set [7], this molecule had a CC50 at 24 h of 54 µM.
On to `Cc1cn(C2CCN(Cc3cc(=O)c4ccccc4[nH]3)CC2)c(=O)[nH]c1=O`, for which, in data set [1] (read-out: IC50), the 50% inhibitory concentration (IC50) came to 7.8 µM. Also, the MIC99 in data set [4], in data set [5] and in [6] was greater than 100 µM each time. Moreover, in data set [7], the CC50 at 24 h was greater than 64 µM.
For the molecule `NNC(=O)c1ccncc1` [ISONIAZID], the MIC99 in [4], in data set [5] and in [6] was 0.15 µM (≈ 0.0206 µg/mL) each time.
As for `Cc1cn(C2CCN(Cc3ccc(Oc4ccccc4)cc3)CC2)c(=O)[nH]c1=O`, in [1] (read-out: IC50), the IC50 was 29 µM. This molecule also displayed an MIC99 in data set [9] greater than 64 µM.
`Cc1cn(C2CCN(Cc3cc(Oc4ccc(O)cc4)c4ccccc4n3)CC2)c(=O)[nH]c1=O`: the IC50 in data set [1] (read-out: IC50) was determined as 0.83 µM. Further, the MIC99 in data set [4] is no less than 100 µM; in data set [5], greater than 100 µM; in [6], no less than 100 µM. In data set [7], the CC50 at 24 h is greater than 64 µM.
As for `Cc1cn(C2CCN(Cc3cc(Oc4ccc(C(=O)O)c(O)c4)c4ccccc4n3)CC2)c(=O)[nH]c1=O`, in data set [1] (read-out: IC50), the IC50 stood at 1.3 µM. Besides, the MIC99 in [4] was greater than 100 µM; in data set [5] it was 100 µM (≈ 50.3 µg/mL); in data set [6], no less than 100 µM. Further, in data set [7], the CC50 at 24 h was greater than 64 µM.
In the case of `Cc1cn(C2CCN(Cc3cc(NCCOC(=O)c4ccc(O)c(O)c4)c4ccccc4n3)CC2)c(=O)[nH]c1=O`, the IC50 in data set [1] (read-out: IC50) was determined as 0.24 µM. Moreover, in [3], the remaining at 24 h is greater than 70%. In addition, the figures for the MIC99 in data set [4], in [5] and in data set [6] were greater than 100 µM, greater than 100 µM and 100 µM (≈ 54.6 µg/mL), respectively. The CC50 at 24 h in [7] is greater than 64 µM.

These data come from ChEMBL document CHEMBL4765430, “Endeavors towards transformation of M. tuberculosis thymidylate kinase (MtbTMPK) inhibitors into potential antimycobacterial agents” (Eur J Med Chem, 2020).
